According to patent publication US20130324439A1, “Elastic Modulus-modified MicroEnvironment microArrays (eMEArrays) and Uses Thereof” (The Regents of the University of California, priority 2012, published 2013):
Entries after “also recorded” stand apart in the source; their conditions may differ.

Columns and labels:
[1] = tested on: HER2+ breast cancer cell line HCC1569; test: EdU incorporation (DNA synthesis) of HCC1569 on 2D tissue culture plastic, PA gels of tuned elastic modulus or 3D Matrigel; settings: for Effect of actinomyosin network inhibitor on the modulus-dependent lapatinib response: HCC1569 on PA gels, 1 hr w/inhibitors; for Effect of inhibitor added with lapatinib on the 3D context-dependent response (EdU incorporation): 3D Matrigel versus 2D TC plastic; for Effect of inhibitor alone on EdU incorporation: TC plastic or 3D Matrigel, without lapatinib; for Response to lapatinib (EdU incorporation), 3D Matrigel culture versus 2D tissue culture plastic: 4 days growth then 2 days with 1.5 μM Lapatinib
Procedure: (§1) The cells were grown on plastic tissue culture dishes (2D) vs. PA gels, and 3D on top, RPMI1640 with 1% FBS and 5% Matrigel 4 days growth then 2 days with 1.5 μM Lapatinib.
(§2) We sought to determine if HER-2 drug response was different between 2D and 3D culture environment and whether that difference is due to different substrata stiffness. Cells were grown on plastic tissue culture dishes (2D), functionalized polyacrylamide cell culture (PA) gels, and in 3D (Matrigel on top, RPMI1640 with 1% FBS and 5% Matrigel 4 days growth then 2 days with 1.5 μM Lapatinib).
We next sought to determine if the actinomyosin network plays a role in this different drug response. Cells were grown in 2D, on PA gels, and in 3D Matrigel with 2 days growth, 1 hr w/inhibitors, then 2 days with 1.5 μM lapatinib.
To determine whether the 3D Matrigel context response was due only to the physiological modulus, we combined the actinomyosin network inhibitors together with lapatinib and compared the responses of cells in 3D to cells cultured on 2D TC plastic.
We next sought to determine if the concentration of type I collagen affected HER-2 targeted drug response. Referring now to FIG. 14, cells were subjected to non-coated tissue culture dishes, Collagen I coated tissue coated dishes for 2 days growth, then 2 days with 1.5 μM lapatinib.

[2] = tested on: HER2; test: Phospho-specific intracellular flow cytometry, ratio of pHER2 to total HER2 in HCC1569; format: cell-based; settings: for Modulus-dependent regulation of pHER2/HER2 ratio in treated cells: HCC1569, inhibitor for 24 hours on PA gels of differing compliance
Excerpt: FIG. 13 is a graph showing by using intracellular flow cytometry to analyze the pHER2 and HER2 expression level of HCC1569, that cells on softer gel have higher pHER2/HER2 ratio and less EdU incorporation, vice versa, and then compared to the drug response. Thus stiffness can alter HER2 regulation and drug response. pHER2/HER2 ratios are altered in a modulus-dependent manner. (blue line) pHER2/HER2 ratios as determined with phosphor specific flow cytometry on HCC1569 cells cultured 4 days on different compliance substrata. (red line) Responses to lapatinib determined by EdU incorporation in HCC1569 as a function of substrate compliance
To better understand why changing the elastic modulus of the culture substrata altered sensitivity to lapatinib on PA gels we used phospho-specific intracellular flow cytometry techniques to measure the ratio of phosphorylated HER2 (pHER2, which is considered activated) to total HER2. Cells were first fixed and stained with an antibody that recognized total HER2 on the cell surface, then the cells were permeabilized and stained for pHER2 prior to multicolor analysis on a flow cytometer.
To determine whether the actinomyosin network is involved in regulating the modulus-dependent regulation of HER2, HCC 1569 were exposed to Blebbistatin or Y27632 for 24 hours on PA gels of differing compliance. […] Thus the actinomyosin network is likely important in modulus-dependent regulation of HER2.

[3] = tested on: HCC1569 cells; test: eMEArray drug response, EdU-pixels/nucleus-pixels of HCC1569 on printed microenvironments on PA gels
[4] = tested on: HER2-expressing breast cancer cell lines; settings: cited from earlier work
[5] = tested on: HER2- BT549 cells; test: EdU incorporation of BT549 on 2D plastic, PA gels or 3D Matrigel; format: cell-based; settings: PA gel and 3D, 1.5 μM Lapatinib
Procedure: as §1, §2

[6] = then 2 days with 1.5 μM lapatinib

Cc1ccc2c(c1)C(=O)C1(O)CCN(c3ccccc3)C1=N2 (stereo not shown) [Blebbistatin]
Effect of actinomyosin network inhibitor on the modulus-dependent lapatinib response [1, 6]: altered
Modulus-dependent regulation of pHER2/HER2 ratio in treated cells [2]: absent

O=S(=O)(c1cccc2c(I)cccc12)N1CCCNCC1 [ML-7]
Effect of inhibitor added with lapatinib on the 3D context-dependent response (EdU incorporation) ([1]; HCC1569): eliminated any context-driven differences
Effect of inhibitor alone on EdU incorporation ([1]; HCC1569): did not have any effect
Effect of actinomyosin network inhibitor on the modulus-dependent lapatinib response [1, 6]: altered
Effect of combination with Lapatinib on cells on 2D PA gels ([1]; combination of ML-7 with Lapatinib, 2D PA gels): synergistic response that caused massive cell death
Effect of lapatinib and ML-7 together on cells in 3D ([1]; lapatinib and ML-7, 3D Matrigel): no such synergistic effect

CS(=O)(=O)CCNCc1ccc(-c2ccc3ncnc(Nc4ccc(OCc5cccc(F)c5)c(Cl)c4)c3c2)o1 [Lapatinib]
Response of cells on eMEArrays with elastic modulus similar to 40 kPa ([3]; 40 kPa): sensitive response
Response of cells on 400 kPa eMEArrays ([3]; 400 kPa): resistant response
Responses to lapatinib on other molecular microenvironments relative to type 1 collagen alone ([3]; HCC1569, 1.5 μM Lapatinib for 24 hours, EdU for the final 4 hours): widely varied responses
Responsiveness in 3D Matrigel culture compared to 2D growth [4]: less responsive
Response to lapatinib (EdU incorporation) [5]: unaffected
Response to lapatinib (EdU incorporation) ([5]; listed as lapatinib): did not respond; also recorded: insensitive
Response to lapatinib (EdU incorporation) on PA gels tuned to 400 Pa, compared with 3D Matrigel ([1]; HCC1569, 400 Pa PA gel crosslinked to type 1 collagen, 1.5 uM lapatinib): very similar results compared to 3D cultures; also recorded: phenocopied the response of HCC1569 grown in 3D Matrigel
Response to lapatinib (EdU incorporation), 3D Matrigel culture versus 2D tissue culture plastic ([1]; HCC1569): inhibited more
Response to lapatinib (EdU incorporation), 3D Matrigel culture versus 2D tissue culture plastic ([1]; HCC1569, listed as lapatinib): more sensitive
Influence of type I collagen concentration on lapatinib response (% EdU incorporation) ([1]; non-coated vs Collagen-I coated TC dishes or PA gels, 2 days growth, then 2 days with 1.5 μM lapatinib): does impact lapatinib response on TC dishes, but less so on low modulus gels
Ratio of pHER2 to total HER2 as a function of substrate compliance ([2]; HCC1569 on 400 Pa, 2500 Pa, 4470 Pa, 40 KPa gels or TC plastic, 1.5 uM lapatinib for 4 days): higher ratio of pHER2 to total HER2 on more compliant substrata

C[C@@H](N)[C@H]1CC[C@H](C(=O)Nc2ccncc2)CC1 [Y27632]
Effect of inhibitor added with lapatinib on the 3D context-dependent response (EdU incorporation) ([1]; HCC1569): did not alter
Effect of inhibitor alone on EdU incorporation ([1]; HCC1569): did not have any effect
Effect of actinomyosin network inhibitor on the modulus-dependent lapatinib response [1, 6]: altered
Modulus-dependent regulation of pHER2/HER2 ratio in treated cells [2]: absent
